According to patent US10597388B2, “Pyridazinone herbicides” (FMC CORPORATION, priority 2014, dated 2020):

Columns and labels:
Assay in all cases: Test C greenhouse herbicide test, pre- and postemergence
Assay type in all cases: in vivo
[1] = system: barnyardgrass (Echinochloa crus-galli)
How it was run: (§1)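 Greenhouse pots; pre-em on seeded loam:sand blend, post-em on 2–18 cm plants (1–4 leaf) in sphagnum peat/vermiculite medium. Formulation: non-phytotoxic solvent + surfactant. Read-out: visual % control (0–100) vs controls at 13–15 d.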

[2] = system: blackgrass (Alopecurus myosuroides)
How it was run: as §1

corn (Zea mays) = system: corn (Zea mays)
How it was run: as §1

[3] = system: crabgrass, large (large crabgrass, Digitaria sanguinalis)
How it was run: as §1

[4] = system: foxtail, giant (giant foxtail, Setaria faberii)
How it was run: as §1

[5] = system: galium (catchweed bedstraw, Galium aparine)
How it was run: as §1

[6] = system: lambsquarters (Chenopodium album)
How it was run: as §1

[7] = system: morningglory (Ipomoea coccinea)
How it was run: as §1

[8] = system: nutsedge, yellow (yellow nutsedge, Cyperus esculentus)
How it was run: as §1

[9] = system: pigweed (Amaranthus retroflexus)
How it was run: as §1

[10] = system: ryegrass, Italian (Italian ryegrass, Lolium multiflorum)
How it was run: as §1

soybean (Glycine max) = system: soybean (Glycine max)
How it was run: as §1

[11] = system: velvetleaf (Abutilon theophrasti)
How it was run: as §1

[12] = system: waterhemp (common waterhemp, Amaranthus rudis)
How it was run: as §1

[13] = system: wheat (winter wheat, Triticum aestivum)
How it was run: as §1

[14] = Postemergence, 31 g ai/ha, 0 to 100 scale (0 no effect, 100 complete control)
[15] = Postemergence, 125 g ai/ha, scale 0 to 100, 0 is no effect, 100 is complete control
[16] = Postemergence, 250 g ai/ha, scale 0 to 100, 0 no effect, 100 complete control, 13 to 15 d
[17] = Preemergence, 31 g ai/ha, scale 0 to 100, 0 is no effect, 100 is complete control
[18] = Preemergence, 62 g ai/ha, scale 0 to 100, 0 is no effect, 100 is complete control
[19] = Preemergence, 125 g ai/ha, scale 0 to 100, 0 is no effect, 100 is complete control
[20] = Preemergence, 250 g ai/ha, scale 0 to 100, 0 no effect, 100 complete control
[21] = postemergence, 62 g ai/ha, scale 0 to 100, 0 no effect, 100 complete control

Cc1cc2ccccc2c(-c2c(O)c(C)nn(C)c2=O)c1C [Compound 34]
Barnyardgrass plant response rating [1, 14]: 20
Plant response rating, Barnyardgrass [1, 15]: 35
Plant response rating, Barnyardgrass [1, 16]: 35
Plant response rating, Barnyardgrass [1, 17]: 60
Plant response rating, Barnyardgrass [1, 18]: 55
Plant response rating, Barnyardgrass [1, 19]: 65
Barnyardgrass plant response rating [1, 20]: 75
Barnyardgrass plant response rating [1, 21]: 25
Blackgrass plant response rating [2, 14]: 10
Plant response rating, Blackgrass [2, 15]: 35
Plant response rating, Blackgrass [2, 16]: 60
Plant response rating, Blackgrass [2, 17]: 5
Plant response rating, Blackgrass [2, 18]: 50
Plant response rating, Blackgrass [2, 19]: 85
Blackgrass plant response rating [2, 20]: 90
Blackgrass plant response rating [2, 21]: 10
Corn plant response rating (corn (Zea mays); [14]): 0
Plant response rating, Corn (corn (Zea mays); [15]): 5
Plant response rating, Corn (corn (Zea mays); [16]): 5
Plant response rating, Corn (corn (Zea mays); [17]): 0
Plant response rating, Corn (corn (Zea mays); [18]): 0
Plant response rating, Corn (corn (Zea mays); [19]): 10
Corn plant response rating (corn (Zea mays); [20]): 0
Corn plant response rating (corn (Zea mays); [21]): 5
Crabgrass, Large plant response rating [3, 14]: 5
Plant response rating, Crabgrass, Large [3, 15]: 20
Plant response rating, Crabgrass, Large [3, 16]: 25
Plant response rating, Crabgrass, Large [3, 17]: 0
Plant response rating, Crabgrass, Large [3, 18]: 10
Plant response rating, Crabgrass, Large [3, 19]: 25
Crabgrass, Large plant response rating [3, 20]: 30
Crabgrass, Large plant response rating [3, 21]: 10
Foxtail, Giant plant response rating [4, 14]: 10
Plant response rating, Foxtail, Giant [4, 15]: 25
Plant response rating, Foxtail, Giant [4, 16]: 35
Plant response rating, Foxtail, Giant [4, 17]: 0
Plant response rating, Foxtail, Giant [4, 18]: 65
Plant response rating, Foxtail, Giant [4, 19]: 75
Foxtail, Giant plant response rating [4, 20]: 70
Foxtail, Giant plant response rating [4, 21]: 20
Galium plant response rating [5, 14]: 90
Plant response rating, Galium [5, 15]: 95
Plant response rating, Galium [5, 16]: 95
Plant response rating, Galium [5, 17]: 95
Plant response rating, Galium [5, 18]: 95
Plant response rating, Galium [5, 19]: 90
Galium plant response rating [5, 20]: 100
Galium plant response rating [5, 21]: 95
Lambsquarters plant response rating [6, 14]: 90
Plant response rating, Lambsquarters [6, 15]: 95
Plant response rating, Lambsquarters [6, 16]: 100
Plant response rating, Lambsquarters [6, 17]: 80
Plant response rating, Lambsquarters [6, 18]: 90
Plant response rating, Lambsquarters [6, 19]: 80
Lambsquarters plant response rating [6, 20]: 75
Lambsquarters plant response rating [6, 21]: 90
Morningglory plant response rating [7, 14]: 85
Plant response rating, Morningglory [7, 15]: 95
Plant response rating, Morningglory [7, 16]: 98
Plant response rating, Morningglory [7, 17]: 70
Plant response rating, Morningglory [7, 18]: 80
Plant response rating, Morningglory [7, 19]: 85
Morningglory plant response rating [7, 20]: 95
Morningglory plant response rating [7, 21]: 98
Nutsedge, Yellow plant response rating [8, 14]: 45
Plant response rating, Nutsedge, Yellow [8, 15]: 85
Plant response rating, Nutsedge, Yellow [8, 16]: 85
Plant response rating, Nutsedge, Yellow [8, 17]: 25
Plant response rating, Nutsedge, Yellow [8, 18]: 25
Plant response rating, Nutsedge, Yellow [8, 19]: 35
Nutsedge, Yellow plant response rating [8, 20]: 65
Nutsedge, Yellow plant response rating [8, 21]: 60
Pigweed plant response rating [9, 14]: 90
Plant response rating, Pigweed [9, 15]: 80
Plant response rating, Pigweed [9, 16]: 98
Plant response rating, Pigweed [9, 17]: 100
Plant response rating, Pigweed [9, 18]: 100
Plant response rating, Pigweed [9, 19]: 100
Pigweed plant response rating [9, 20]: 100
Pigweed plant response rating [9, 21]: 85
Ryegrass, Italian plant response rating [10, 14]: 80
Plant response rating, Ryegrass, Italian [10, 15]: 90
Plant response rating, Ryegrass, Italian [10, 16]: 90
Plant response rating, Ryegrass, Italian [10, 17]: 45
Plant response rating, Ryegrass, Italian [10, 18]: 85
Plant response rating, Ryegrass, Italian [10, 19]: 85
Ryegrass, Italian plant response rating [10, 20]: 95
Ryegrass, Italian plant response rating [10, 21]: 80
Soybean plant response rating (soybean (Glycine max); [14]): 5
Plant response rating, Soybean (soybean (Glycine max); [15]): 15
Plant response rating, Soybean (soybean (Glycine max); [16]): 5
Plant response rating, Soybean (soybean (Glycine max); [18]): 10
Plant response rating, Soybean (soybean (Glycine max); [19]): 0
Soybean plant response rating (soybean (Glycine max); [20]): 5
Soybean plant response rating (soybean (Glycine max); [21]): 5
Velvetleaf plant response rating [11, 14]: 50
Plant response rating, Velvetleaf [11, 15]: 100
Plant response rating, Velvetleaf [11, 16]: 90
Plant response rating, Velvetleaf [11, 18]: 80
Plant response rating, Velvetleaf [11, 19]: 85
Velvetleaf plant response rating [11, 20]: 98
Velvetleaf plant response rating [11, 21]: 80
Waterhemp plant response rating [12, 14]: 85
Plant response rating, Waterhemp [12, 15]: 90
Plant response rating, Waterhemp [12, 16]: 98
Plant response rating, Waterhemp [12, 18]: 100
Plant response rating, Waterhemp [12, 19]: 100
Waterhemp plant response rating [12, 20]: 100
Waterhemp plant response rating [12, 21]: 85
Wheat plant response rating [13, 14]: 5
Plant response rating, Wheat [13, 15]: 10
Plant response rating, Wheat [13, 16]: 0
Plant response rating, Wheat [13, 18]: 0
Plant response rating, Wheat [13, 19]: 5
Wheat plant response rating [13, 20]: 25
Wheat plant response rating [13, 21]: 5

CCC(=O)Oc1c(C)nn(C)c(=O)c1-c1c(C)ccc2ccccc12 [Compound 78]
Barnyardgrass plant response rating [1, 14]: 15
Plant response rating, Barnyardgrass [1, 15]: 30
Plant response rating, Barnyardgrass [1, 16]: 25
Barnyardgrass plant response rating [1, 21]: 25
Blackgrass plant response rating [2, 14]: 0
Plant response rating, Blackgrass [2, 15]: 5
Plant response rating, Blackgrass [2, 16]: 30
Blackgrass plant response rating [2, 21]: 5
Corn plant response rating (corn (Zea mays); [14]): 0
Plant response rating, Corn (corn (Zea mays); [15]): 10
Plant response rating, Corn (corn (Zea mays); [16]): 0
Corn plant response rating (corn (Zea mays); [21]): 0
Crabgrass, Large plant response rating [3, 14]: 5
Plant response rating, Crabgrass, Large [3, 15]: 10
Plant response rating, Crabgrass, Large [3, 16]: 10
Crabgrass, Large plant response rating [3, 21]: 5
Foxtail, Giant plant response rating [4, 14]: 15
Plant response rating, Foxtail, Giant [4, 15]: 20
Plant response rating, Foxtail, Giant [4, 16]: 25
Foxtail, Giant plant response rating [4, 21]: 5
Galium plant response rating [5, 14]: 70
Plant response rating, Galium [5, 15]: 80
Plant response rating, Galium [5, 16]: 95
Galium plant response rating [5, 21]: 80
Lambsquarters plant response rating [6, 14]: 40
Plant response rating, Lambsquarters [6, 15]: 75
Plant response rating, Lambsquarters [6, 16]: 100
Lambsquarters plant response rating [6, 21]: 70
Morningglory plant response rating [7, 14]: 20
Plant response rating, Morningglory [7, 15]: 65
Plant response rating, Morningglory [7, 16]: 65
Morningglory plant response rating [7, 21]: 40
Nutsedge, Yellow plant response rating [8, 14]: 0
Plant response rating, Nutsedge, Yellow [8, 15]: 35
Plant response rating, Nutsedge, Yellow [8, 16]: 60
Nutsedge, Yellow plant response rating [8, 21]: 25
Pigweed plant response rating [9, 14]: 50
Plant response rating, Pigweed [9, 15]: 75
Plant response rating, Pigweed [9, 16]: 80
Pigweed plant response rating [9, 21]: 60
Ryegrass, Italian plant response rating [10, 14]: 55
Plant response rating, Ryegrass, Italian [10, 15]: 85
Plant response rating, Ryegrass, Italian [10, 16]: 90
Ryegrass, Italian plant response rating [10, 21]: 65
Soybean plant response rating (soybean (Glycine max); [14]): 0
Plant response rating, Soybean (soybean (Glycine max); [15]): 5
Plant response rating, Soybean (soybean (Glycine max); [16]): 20
Soybean plant response rating (soybean (Glycine max); [21]): 0
Velvetleaf plant response rating [11, 14]: 0
Plant response rating, Velvetleaf [11, 15]: 35
Plant response rating, Velvetleaf [11, 16]: 60
Velvetleaf plant response rating [11, 21]: 10
Waterhemp plant response rating [12, 14]: 75
Plant response rating, Waterhemp [12, 15]: 80
Plant response rating, Waterhemp [12, 16]: 90
Waterhemp plant response rating [12, 21]: 90
Wheat plant response rating [13, 14]: 0
Plant response rating, Wheat [13, 15]: 5
Plant response rating, Wheat [13, 16]: 10
Wheat plant response rating [13, 21]: 5
